Article PMC11305387, “AlphaFold accelerated discovery of psychotropic agonists targeting the trace amine–associated receptor 1” (Science Advances, 2024)
pEC50: −log10 of the molar value.

How the values were obtained:
5-HT1D receptor = target: T1, 5-HT1D receptor (Homo sapiens, UniProt P28221); test: PRESTO-TANGO β-arrestin recruitment; assay type: cell-based
T1 construct: TANGO fusion module (own knowledge, Kroeze et al.: C-terminal V2 tail, TEV site and tTA); 1000000068; host or cells: HTLA (HEK293-derived)
Protocol: (§1) Assessment of receptor activation by compounds at all human aminergic receptors were carried out using a modified version of the PRESTO-TANGO method. […] The plate was spun down, and 5 μl of a 1:25 dilution (in DPBS) of polyethylenimine (PEI) derivative (Transporter 5, Polysciences) was added (1:4 cDNA to PEI ratio) and incubated for 20 min at room temperature (RT). […] Luminescence signal was detected using a plate-reader (SPARK, Tecan) with 100-ms integration time and a 100-ms delay between well reads.

D2 receptor = target: T2, D2 receptor (Homo sapiens, UniProt P14416); test: cell-based; assay type: cell-based
T2 construct: TANGO fusion module (own knowledge, Kroeze et al.: C-terminal V2 tail, TEV site and tTA); 1000000068; host or cells: HTLA (HEK293-derived)
Protocol: as §1

5-HT1A receptor = target: T3, 5-HT1A receptor (Homo sapiens, UniProt P08908); test: PRESTO-TANGO β-arrestin recruitment; assay type: cell-based; settings: panel screen
T3 construct: TANGO fusion module (own knowledge, Kroeze et al.: C-terminal V2 tail, TEV site and tTA); 1000000068; host or cells: HTLA (HEK293-derived)
T3 sequence (P08908 1-422): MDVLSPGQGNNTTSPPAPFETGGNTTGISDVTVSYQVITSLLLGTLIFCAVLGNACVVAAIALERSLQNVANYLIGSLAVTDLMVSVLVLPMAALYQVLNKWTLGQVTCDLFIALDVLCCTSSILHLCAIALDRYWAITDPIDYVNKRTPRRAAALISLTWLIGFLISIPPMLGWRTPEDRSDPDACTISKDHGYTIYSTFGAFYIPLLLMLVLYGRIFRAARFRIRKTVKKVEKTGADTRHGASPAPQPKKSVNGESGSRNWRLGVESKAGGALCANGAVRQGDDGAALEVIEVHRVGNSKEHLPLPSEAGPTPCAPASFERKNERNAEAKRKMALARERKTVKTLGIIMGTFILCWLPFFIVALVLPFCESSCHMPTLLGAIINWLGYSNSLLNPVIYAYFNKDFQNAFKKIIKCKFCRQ

[1] = Plasma protein binding (rapid equilibrium dialysis); assay type: in vitro ADME; settings: pH 7.4
Protocol: Pooled human plasma was provided by Uppsala Academic Hospital and was collected from two donors (nonsmoking) (citric acid). In brief, 0.2 ml of the plasma (50% plasma and 50% isotonic buffer) test solution (typically, 10 μM final compound concentration) was transferred to the membrane tube in the rapid equilibrium dialysis (RED) insert (Thermo Fisher Scientific). Isotonic phosphate buffer (0.35 ml; pH 7.4) was added to the other side of the membrane. The 96-well base plate was then sealed with an adhesive plastic film (Scotch Pad) to prevent evaporation. The sample was incubated with rapid rotation (>900 rpm) on a Kisker rotational incubator at 37°C for 4 hours to achieve equilibrium. A stability test of the test solution was prepared (to allow detection of drug degradation), and 100 μl of the plasma test solution (in a plastic vial or on a sealed plate) was incubated at 37°C for 4 hours (or as long as the dialysis time). The plasma test solution was frozen directly after the administration to prevent any degradation. Before LC-MS/MS analysis, the plasma and buffer samples were treated with the addition of methanol (1:3) containing Warfarin as internal standard to precipitate proteins. The standard curve was created using the plasma standard. The plate was then sealed and centrifuged, and the supernatant was analyzed by LC-MS/MS ([78]).

WT and TAAR1-KO mice [2] = test: Pre-pulse inhibition (PPI) behavioral assay; assay type: in vivo; settings: compound 65 1 mg/kg, risperidone 0.2 mg/kg i.p.
Protocol: Measurements were performed using startle response chambers (San Diego Instruments, San Diego, CA, USA). Each chamber is sound-isolated and contains a Plexiglass animal enclosure attached to a platform and a loudspeaker that can produce both continuous white noise and acoustic pulses of varying intensities. The animal enclosure is large enough for the animal to turn around and make other movements to reduce restraint stress. Mouse startle responses to acoustic stimuli are transformed by a piezoelectric transducer under the platform into an analog signal. The transducers were calibrated before each experiment using a standardization unit (San Diego Instruments, San Diego, CA, USA), and the speakers were calibrated using a Type 2670 Microphone Preamplifier, a Type 4230 Sound Level Calibrator, and a Type 2610 Measuring Amplifier (Brüel & Kjær, Nærum, Denmark). To habituate the mice to the chambers, they were placed in the enclosure for 5 min, with 65-dB background white noise, on three different days before the start of experiments. PPI measurements were then conducted on each mouse on four occasions separated by 96 hours. The first occasion was a mock test session where all mice were injected with vehicle, serving to reduce the effect of novelty on subsequent sessions. The next three sessions were true test sessions with injection of either compound 65, risperidone, or vehicle. The R package agricolae was used to generate a randomized block design, randomizing treatment order across sex, genotype, and test session.
Animals were brought to the testing room for habituation 60 min before the starting of tests. Thirty minutes before PPI measurements, mice were injected with either compound 65 (1 mg/kg), risperidone (0.2 mg/kg), or vehicle intraperitoneally. Each test session started with a 5-min background noise (65-dB white noise) habituation period. The background noise continued throughout the test session. The habituation period was followed by four blocks of trials, with the first and last blocks consisting of five pulse-only trials (40-ms, 120-dB pulse). During block 2, five trial types were presented five times each in a pseudo-randomized order. The trial types included pulse only, no stimulus (NOSTIM), and three different pre-pulse trials in which 20 ms pre-pulses of different intensities (68, 71, or 77 dB) preceded the startle pulse (120 dB) by a 100-ms interval. Block 3 contained the same numbers and types of trials as block 2, but in a different pseudorandom order. […] PPI data are shown as PPI%, which was calculated as [1 − (pre-pulse trials/startle-only trials)] × 100. Mean PPI was calculated by adding the average PPI% for all pre-pulse intensities (3, 6, and 12 dB) and dividing it by the number (i.e., 3) of pre-pulse intensities.

WT and TAAR1-KO mice [3] = test: Accelerating rotarod test; assay type: in vivo; settings: 1 mg/kg i.p., 30 min after injection
Protocol: To test compound 65 for sedative effects, mice were subjected to the accelerating rotarod test as previously described ([77]), with minor modifications. Mice were acclimatized to the rotarod (Ugo Basile, Gemonio, Italy) for 2 days before testing, starting at 4 rotations per minute (RPM) and accelerating to 40 RPM over 300 s. A baseline measure of performance, defined as the latency to fall from the rotarod with a cutoff time of 300 s, was taken before injection with either compound 65 (1 mg/kg), xylazine (5 mg/kg), or vehicle intraperitoneally. The mice were then retested 30 min after injection.

T1 sequence (P28221 whole entry, the tested form may be a part): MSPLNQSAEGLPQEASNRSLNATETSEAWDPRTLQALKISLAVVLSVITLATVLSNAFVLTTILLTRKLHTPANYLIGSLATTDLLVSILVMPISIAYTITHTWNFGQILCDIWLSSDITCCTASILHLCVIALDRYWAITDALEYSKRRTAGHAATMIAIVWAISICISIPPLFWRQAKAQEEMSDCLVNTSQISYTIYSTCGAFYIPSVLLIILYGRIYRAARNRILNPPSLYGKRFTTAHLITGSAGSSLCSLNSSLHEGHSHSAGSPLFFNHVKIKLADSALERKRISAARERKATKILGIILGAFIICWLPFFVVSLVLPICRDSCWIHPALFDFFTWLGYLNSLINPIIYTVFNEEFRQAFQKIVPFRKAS
T2 sequence (P14416 whole entry, the tested form may be a part): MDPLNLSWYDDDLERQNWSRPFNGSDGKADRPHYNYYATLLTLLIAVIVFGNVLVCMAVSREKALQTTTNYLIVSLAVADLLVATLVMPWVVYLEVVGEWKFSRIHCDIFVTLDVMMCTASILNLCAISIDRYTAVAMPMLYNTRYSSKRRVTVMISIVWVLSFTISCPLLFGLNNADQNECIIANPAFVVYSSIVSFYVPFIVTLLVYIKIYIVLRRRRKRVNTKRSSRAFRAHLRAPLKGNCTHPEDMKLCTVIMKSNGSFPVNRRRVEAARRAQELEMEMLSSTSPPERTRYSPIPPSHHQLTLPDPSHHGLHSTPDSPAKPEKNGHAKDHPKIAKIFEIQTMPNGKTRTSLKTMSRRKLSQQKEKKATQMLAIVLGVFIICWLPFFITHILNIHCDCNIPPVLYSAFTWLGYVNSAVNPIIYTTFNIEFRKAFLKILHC

CC1=C(c2ccco2)CNCC1 [Compound 65]
pEC50 (5-HT1D receptor): < 6.00
Emax (5-HT1D receptor): 75%
agonism at the 5-HT1D receptor (5-HT1D receptor; panel screen): agonism
pEC50 (D2 receptor; concentration-response curves): < 6.00
Emax (D2 receptor; concentration-response curves): 59%
agonism at the D2 receptor (D2 receptor; panel screen): agonism
activation of 5-HT1A receptor (5-HT1A receptor): did not observe a considerable activation
fraction unbound at 4 h, 10 μM ([1]; human, pooled human plasma (50% plasma and 50% isotonic buffer)): 0.61
fraction unbound at 4 h, 10 μM ([1]; mouse, mouse plasma (50% plasma and 50% isotonic buffer)): 0.81
effect on PPI (WT and TAAR1-KO mice [2]; TAAR1-KO mice): did not observe any change in PPI
effect on PPI (WT and TAAR1-KO mice [2]; WT mice): elevated PPI at both 3- and 6-dB pre-pulse levels
effect on rotarod performance (sedation) (WT and TAAR1-KO mice [3]): did not influence rotarod performance
